# Data reported in article PMC10866013 (Nature, 2023).
# Test system: MRSA USA300
# Type: cell-based, Staphylococcus aureus
# Details: vs S. aureus RN4220
structure (smiles),measurement,value
CC1(C)S[C@@H]2[C@H](NC(=O)[C@H](N)c3ccccc3)C(=O)N2[C@H]1C(=O)O [ampicillin],MIC increase in MRSA USA300 relative to the methicillin-susceptible strain,at least 16 fold
